Experimental data published in PubChem BioAssay AID1963851 (Molecular Pharmacology Branch, DTP, NCI, 2024).

Test system: 188146-221-R-J1-PDC complex spheroid viability
Experiment: Anticancer human tumor 188146-221-R-J1-PDC patient-derived colon adenocarcinoma cell line growth inhibition [POLQ]
Conditions: for IC50: curve of first compound; for viability, T/C: stronger effect = lower value; active = viability on the fitted dose curve at most 10% of control; inactive = the rest
In short: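 Growth inhibition in 3D: complex spheroids (tumor PDC, HUVEC, MSC) treated with POLQ inhibitor combinations; where Cmax unknown, highest tested concentration 10 microM, except SN-38 at 1 microM.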

[1] = second compound 0.0316 µM, first compound 0.0316 µM
[2] = second compound 0.0316 µM, first compound 0.1 µM
[3] = second compound 0.0316 µM, first compound 0.316 µM
[4] = second compound 0.0316 µM, first compound 1 µM
[5] = second compound 0.1 µM, first compound 0.0316 µM
[6] = second compound 0.1 µM, first compound 0.1 µM
[7] = second compound 0.1 µM, first compound 0.316 µM
[8] = second compound 0.1 µM, first compound 1 µM
[9] = second compound 0.316 µM, first compound 0.0316 µM
[10] = second compound 0.316 µM, first compound 0.1 µM
[11] = second compound 0.316 µM, first compound 0.316 µM
[12] = second compound 0.316 µM, first compound 1 µM
[13] = second compound 1 µM, first compound 0.0316 µM
[14] = second compound 1 µM, first compound 0.1 µM
[15] = second compound 1 µM, first compound 0.316 µM
[16] = second compound 1 µM, first compound 1 µM
[17] = second compound 3.16 µM, first compound 0.0316 µM
[18] = second compound 3.16 µM, first compound 0.1 µM
[19] = second compound 3.16 µM, first compound 0.316 µM
[20] = second compound 3.16 µM, first compound 1 µM
[21] = second compound 10 µM, first compound 0.0316 µM
[22] = second compound 10 µM, first compound 0.1 µM
[23] = second compound 10 µM, first compound 0.316 µM
[24] = second compound 10 µM, first compound 1 µM
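Note: spheroids exposed to compounds for seven days.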
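Throughout, for viability, T/C: 100% = DMSO vehicle control viability.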

COc1cccc(OCCCN)c1-c1cc(Nc2cnc(C#N)cn2)n[nH]1 + Nc1ccc(C#CCN(C(=O)Cc2ncc(C(F)(F)F)cc2C(F)(F)F)c2ccc(F)cc2)nn1
28.6 nM: IC50 (second compound 10 µM)
47.7 nM: IC50 (second compound 0.316 µM)
inactive: viability, T/C (second compound 0.0316 µM, first compound 0.00316 µM) 94.9% | viability, T/C (second compound 0.0316 µM, first compound 0.01 µM) 96% | viability, T/C [1] 77.4% | viability, T/C [2] 32.7% | viability, T/C [3] 16.2% | viability, T/C [4] 13.6% | viability, T/C (second compound 0.1 µM, first compound 0.00316 µM) 104% | viability, T/C (second compound 0.1 µM, first compound 0.01 µM) 109% | viability, T/C [5] 66.6% | viability, T/C [6] 34.3% | viability, T/C [7] 17.3% | viability, T/C [8] 14% | viability, T/C (second compound 0.316 µM, first compound 0.00316 µM) 106% | viability, T/C (second compound 0.316 µM, first compound 0.01 µM) 99.1% | viability, T/C [9] 59.1% | viability, T/C [10] 30.9% | viability, T/C [11] 16.9% | viability, T/C [12] 12.2% | viability, T/C (second compound 1 µM, first compound 0.00316 µM) 108% | viability, T/C (second compound 1 µM, first compound 0.01 µM) 111% | viability, T/C [13] 46.8% | viability, T/C [14] 28.2% | viability, T/C [15] 15.6% | viability, T/C [16] 14% | viability, T/C (second compound 3.16 µM, first compound 0.00316 µM) 91.5% | viability, T/C (second compound 3.16 µM, first compound 0.01 µM) 85.1% | viability, T/C [17] 54.3% | viability, T/C [18] 23.7% | viability, T/C [19] 15.6% | viability, T/C [20] 13.7% | viability, T/C (second compound 10 µM, first compound 0.00316 µM) 119% | viability, T/C (second compound 10 µM, first compound 0.01 µM) 87.8% | viability, T/C [21] 47.6% | viability, T/C [22] 21.7% | viability, T/C [23] 17% | viability, T/C [24] 15.4%
29.9 nM: IC50 (second compound 1 µM)
64.2 nM: IC50 (second compound 0.0316 µM)
57.3 nM: IC50 (second compound 0.1 µM)
37.5 nM: IC50 (second compound 3.16 µM)

O=c1[nH]cc(F)c(=O)[nH]1 + Nc1ccc(C#CCN(C(=O)Cc2ncc(C(F)(F)F)cc2C(F)(F)F)c2ccc(F)cc2)nn1
1620 nM: IC50 (second compound 3.16 µM)
2730 nM: IC50 (second compound 0.1 µM)
inactive: viability, T/C [1] 116% | viability, T/C [2] 111% | viability, T/C [3] 83.8% | viability, T/C [4] 54.1% | viability, T/C (second compound 0.0316 µM, first compound 3.16 µM) 46.6% | viability, T/C (second compound 0.0316 µM, first compound 10 µM) 52.4% | viability, T/C [5] 121% | viability, T/C [6] 105% | viability, T/C [7] 72.6% | viability, T/C [8] 58% | viability, T/C (second compound 0.1 µM, first compound 3.16 µM) 50.3% | viability, T/C (second compound 0.1 µM, first compound 10 µM) 45.5% | viability, T/C [9] 113% | viability, T/C [10] 103% | viability, T/C [11] 79.2% | viability, T/C [12] 55.2% | viability, T/C (second compound 0.316 µM, first compound 3.16 µM) 48.9% | viability, T/C (second compound 0.316 µM, first compound 10 µM) 43.2% | viability, T/C [13] 100% | viability, T/C [14] 82.4% | viability, T/C [15] 74.5% | viability, T/C [16] 58.6% | viability, T/C (second compound 1 µM, first compound 3.16 µM) 50.1% | viability, T/C (second compound 1 µM, first compound 10 µM) 44.9% | viability, T/C [17] 102% | viability, T/C [18] 91.7% | viability, T/C [19] 74% | viability, T/C [20] 49.9% | viability, T/C (second compound 3.16 µM, first compound 3.16 µM) 46.6% | viability, T/C (second compound 3.16 µM, first compound 10 µM) 47.5% | viability, T/C [21] 123% | viability, T/C [22] 112% | viability, T/C [23] 85.7% | viability, T/C [24] 54.6% | viability, T/C (second compound 10 µM, first compound 3.16 µM) 47.1% | viability, T/C (second compound 10 µM, first compound 10 µM) 43.7%
3660 nM: IC50 (second compound 1 µM)
1990 nM: IC50 (second compound 10 µM)
2920 nM: IC50 (second compound 0.0316 µM)
2140 nM: IC50 (second compound 0.316 µM)
